ChEMBL document CHEMBL1201861, “Genomics of Drug Sensitity in Cancer screening data, Wellcome Trust Sanger Institute”
pIC50: −log10 of the molar value.

How the values were obtained:
Assay in all cases: cells
[1] = system: LAMA-84; format: functional, cell-based; conditions: Homo sapiens;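 note: growth inhibition of LAMA-84 cells, read out with a cell viability assay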
Description: SANGER: Inhibition of human LAMA-84 cell growth in a cell viability assay.

[2] = system: HuP-T4; format: functional, cell-based, Homo sapiens; conditions: Homo sapiens, HuP-T4;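 note: cell viability assay measuring how much HuP-T4 cell growth is inhibited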
Description: SANGER: Inhibition of human HuP-T4 cell growth in a cell viability assay.

[3] = system: OMC-1; format: functional, cell-based, Homo sapiens; conditions: Homo sapiens, OMC-1;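 note: growth inhibition of the OMC-1 cell line, measured by a cell viability assay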
Description: SANGER: Inhibition of human OMC-1 cell growth in a cell viability assay.

[4] = system: LS-411N; format: functional, cell-based, Homo sapiens; conditions: Homo sapiens, LS-411N
[5] = system: A-375; format: functional, cell-based, Homo sapiens; conditions: Homo sapiens, A-375;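 note: growth inhibition of A375 cells, read out with a cell viability assay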
Description: SANGER: Inhibition of human A375 cell growth in a cell viability assay.

[6] = system: MEL-HO; format: functional, cell-based, Homo sapiens; conditions: Homo sapiens, MEL-HO
Description: SANGER: Inhibition of human MEL-HO cell growth in a cell viability assay.

[7] = system: BFTC-905; format: functional, cell-based, Homo sapiens; conditions: Homo sapiens, BFTC-905
Description: SANGER: Inhibition of human BFTC-905 cell growth in a cell viability assay.

[8] = system: NTERA-2-cl-D1; format: functional, cell-based, Homo sapiens; conditions: Homo sapiens, NTERA-2-cl-D1;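 note: inhibition of cell growth, measured with a cell viability assay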
Description: SANGER: Inhibition of human NTERA-S-cl-D1 cell growth in a cell viability assay.

[9] = system: OVCAR-4; format: functional, cell-based, Homo sapiens; conditions: Homo sapiens, OVCAR-4;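 note: growth inhibition of human OVCAR-4 cells, measured with a cell viability assay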
Description: SANGER: Inhibition of human OVCAR-4 cell growth in a cell viability assay.

[10] = system: KM-H2; format: functional, cell-based; conditions: Homo sapiens;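 note: growth inhibition of KM-H2 cells, read out by a cell viability assay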
Description: SANGER: Inhibition of human KM-H2 cell growth in a cell viability assay.

[11] = system: A204; format: functional, cell-based, Homo sapiens; conditions: Homo sapiens, A204;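 note: growth inhibition of human A204 cells, read out with a cell viability assay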
Description: SANGER: Inhibition of human A204 cell growth in a cell viability assay.

[12] = system: TE-10; format: functional, cell-based, Homo sapiens; conditions: Homo sapiens, TE-10;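 note: growth inhibition of TE-10 cells, measured by a cell viability assay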
Description: SANGER: Inhibition of human TE-10 cell growth in a cell viability assay.

[13] = system: HCC1806; format: functional, cell-based, Homo sapiens; conditions: Homo sapiens, HCC1806;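 note: growth inhibition of the cancer cell line, determined with a cell viability assay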
Description: SANGER: Inhibition of human HCC1806 cell growth in a cell viability assay.

[14] = system: G-402; format: functional, cell-based, Homo sapiens; conditions: Homo sapiens, G-402
Description: SANGER: Inhibition of human G-402 cell growth in a cell viability assay.

[15] = system: A-431; format: functional, cell-based, Homo sapiens; conditions: Homo sapiens, A-431;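 note: growth inhibition of A-431 cells, determined with a cell viability read-out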
Description: SANGER: Inhibition of human A431 cell growth in a cell viability assay.

[16] = system: RT-112; format: functional, cell-based, Homo sapiens; conditions: Homo sapiens, RT-112
Description: SANGER: Inhibition of human RT-112 cell growth in a cell viability assay.

[17] = system: IA-LM; format: functional, cell-based, Homo sapiens; conditions: Homo sapiens, IA-LM;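 note: cell viability assay measuring growth inhibition of human IA-LM cells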
Description: SANGER: Inhibition of human IA-LM cell growth in a cell viability assay.

[18] = system: U-87 MG; format: functional, cell-based, U-87MG ATCC; conditions: Homo sapiens;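 note: growth inhibition of the cells measured with a viability assay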
Description: SANGER: Inhibition of human U-87-MG cell growth in a cell viability assay.

[19] = system: MG-63; format: functional, cell-based, Homo sapiens; conditions: Homo sapiens, MG-63;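 note: growth inhibition of human MG-63 cells, read out with a cell viability assay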
Description: SANGER: Inhibition of human MG-63 cell growth in a cell viability assay.

[20] = system: MC116; format: functional, cell-based; conditions: Homo sapiens;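 note: growth inhibition of MC116 cells, read out with a cell viability assay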
Description: SANGER: Inhibition of human MC116 cell growth in a cell viability assay.

[21] = system: UO-31; format: functional, cell-based; conditions: Homo sapiens;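 note: cell viability assay measuring inhibition of cell growth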
Description: SANGER: Inhibition of human U031 cell growth in a cell viability assay.

[22] = system: CAL-33; format: functional, cell-based, Homo sapiens; conditions: Homo sapiens, CAL-33;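 note: growth inhibition of CAL-33 cells, read out with a cell viability assay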
Description: SANGER: Inhibition of human CAL-33 cell growth in a cell viability assay.

[23] = system: GCT; format: functional, cell-based, Homo sapiens; conditions: Homo sapiens, GCT;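 note: GCT cell line proliferation inhibition, read out with a cell viability assay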
Description: SANGER: Inhibition of human GCT cell growth in a cell viability assay.

[24] = system: NCI-H727; format: functional, cell-based, Homo sapiens; conditions: Homo sapiens, NCI-H727;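 note: growth inhibition of human NCI-H727 cells, read out with a cell viability assay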
Description: SANGER: Inhibition of human NCI-H727 cell growth in a cell viability assay.

[25] = system: NCI-H1581; format: functional, cell-based, Homo sapiens; conditions: Homo sapiens, NCI-H1581;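 note: cell growth inhibition read out by a viability assay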
Description: SANGER: Inhibition of human NCI-H1581 cell growth in a cell viability assay.

[26] = system: HH; format: functional, cell-based; conditions: Homo sapiens
Description: SANGER: Inhibition of human HH cell growth in a cell viability assay.

[27] = system: RPMI-7951; format: functional, cell-based, Homo sapiens; conditions: Homo sapiens, RPMI-7951
Description: SANGER: Inhibition of human RPMI-7951 cell growth in a cell viability assay.

[28] = system: DK-MG; format: functional, cell-based, Homo sapiens; conditions: Homo sapiens, DK-MG;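 note: growth inhibition of DK-MG cells, read out with a cell viability assay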
Description: SANGER: Inhibition of human DK-MG cell growth in a cell viability assay.

[29] = system: BE-13; format: functional, cell-based; conditions: Homo sapiens;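 note: growth inhibition of human BE-13 cells, measured with a cell viability assay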
Description: SANGER: Inhibition of human BE-13 cell growth in a cell viability assay.

[30] = system: MFM-223; format: functional, cell-based, Homo sapiens; conditions: Homo sapiens, MFM-223
Description: SANGER: Inhibition of human MFM-223 cell growth in a cell viability assay.

[31] = system: JAR; format: functional, cell-based, Homo sapiens; conditions: Homo sapiens, JAR;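 note: growth inhibition of human JAR cells determined with a cell viability assay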
Description: SANGER: Inhibition of human JAR cell growth in a cell viability assay.

[32] = system: CAL-85-1; format: functional, cell-based; conditions: Homo sapiens;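 note: growth inhibition of human CAL-85-1 cells, read out with a cell viability assay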
Description: SANGER: Inhibition of human CAL-85-1 cell growth in a cell viability assay.

[33] = system: H4; format: functional, cell-based; conditions: Homo sapiens
Description: SANGER: Inhibition of human H4 cell growth in a cell viability assay.

[34] = system: CAMA-1; format: functional, cell-based, Homo sapiens; conditions: Homo sapiens, CAMA-1;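 note: growth inhibition of CAMA-1 cells, read out with a cell viability assay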
Description: SANGER: Inhibition of human CAMA-1 cell growth in a cell viability assay.

[35] = system: KOSC-2; format: functional, cell-based, Homo sapiens; conditions: Homo sapiens, KOSC-2;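 note: growth inhibition of KOSC-2 cells, read out by a cell viability assay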
Description: SANGER: Inhibition of human KOSC-2 cell growth in a cell viability assay.

[36] = system: UACC-257; format: functional, cell-based, Homo sapiens; conditions: Homo sapiens, UACC-257
Description: SANGER: Inhibition of human UACC-257 cell growth in a cell viability assay.

[37] = system: 697; format: functional, cell-based; conditions: Homo sapiens
Description: SANGER: Inhibition of human 697 cell growth in a cell viability assay.

[38] = system: BEN; format: functional, cell-based, Homo sapiens; conditions: Homo sapiens, BEN;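 note: growth inhibition of the BEN cell line, read out with a cell viability assay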
Description: SANGER: Inhibition of human BEN cell growth in a cell viability assay.

[39] = system: KARPAS-299; format: functional, cell-based; conditions: Homo sapiens
Description: SANGER: Inhibition of human KARPAS-299 cell growth in a cell viability assay.

[40] = system: HuCCT-1; format: functional, cell-based, Homo sapiens, HuCCT1; conditions: Homo sapiens, HuCCT-1;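 note: growth inhibition of HuCCT-1 cells, read out by a cell viability assay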
Description: SANGER: Inhibition of human HuCCT1 cell growth in a cell viability assay.

[41] = system: KM12; format: functional, cell-based, Homo sapiens; conditions: Homo sapiens, KM12;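 note: KM12 cell growth inhibition, read out with a cell viability assay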
Description: SANGER: Inhibition of human KM12 cell growth in a cell viability assay.

[42] = system: OCI-AML2; format: functional, cell-based; conditions: Homo sapiens;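 note: growth inhibition of OCI-AML2 cells, read out with a cell viability assay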
Description: SANGER: Inhibition of human OCI-AML2 cell growth in a cell viability assay.

[43] = system: HCC1395; format: functional, cell-based, Homo sapiens; conditions: Homo sapiens, HCC1395;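 note: growth inhibition of HCC1395 cells, read out by a cell viability assay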
Description: SANGER: Inhibition of human HCC1395 cell growth in a cell viability assay.

[44] = system: SW1783; format: functional, cell-based; conditions: Homo sapiens;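 note: cell growth inhibition measured with a viability assay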
Description: SANGER: Inhibition of human SW1783 cell growth in a cell viability assay.

[45] = system: SK-NEP-1; format: functional, cell-based; conditions: Homo sapiens;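 note: growth inhibition of human SK-NEP-1 cells, read out by a cell viability assay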
Description: SANGER: Inhibition of human SK-NEP-1 cell growth in a cell viability assay.

[46] = system: HAL-01; format: functional, cell-based; conditions: Homo sapiens;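 note: growth inhibition of human HAL-01 cells, read out with a cell viability assay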
Description: SANGER: Inhibition of human HAL-01 cell growth in a cell viability assay.

[47] = system: IST-SL1; format: functional, cell-based, Homo sapiens; conditions: Homo sapiens, IST-SL1;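 note: growth inhibition of human IST-SL1 cells, read out with a cell viability assay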
Description: SANGER: Inhibition of human IST-SL1 cell growth in a cell viability assay.

[48] = system: NB7; format: functional, cell-based; conditions: Homo sapiens;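 note: growth inhibition of NB7 cells, read out with a cell viability assay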
Description: SANGER: Inhibition of human NB7 cell growth in a cell viability assay.

[49] = system: DOK; format: functional, cell-based, Homo sapiens; conditions: Homo sapiens, DOK;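 note: cell viability assay read-out, values reflect inhibition of cell growth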
Description: SANGER: Inhibition of human DOK cell growth in a cell viability assay.

[50] = system: CTV-1; format: functional, cell-based; conditions: Homo sapiens;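 note: growth inhibition of the cell line, read out with a cell viability assay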
Description: SANGER: Inhibition of human CTV-1 cell growth in a cell viability assay.

[51] = system: KS-1; format: functional, cell-based, Homo sapiens; conditions: Homo sapiens, KS-1;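 note: growth inhibition of KS-1 cells, read out with a cell viability assay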
Description: SANGER: Inhibition of human KS-1 cell growth in a cell viability assay.

Measured: pIC50

CN(Cc1cnc2nc(N)nc(N)c2n1)c1ccc(C(=O)N[C@@H](CCC(=O)O)C(=O)O)cc1 [METHOTREXATE]
6.71: [19]
7.91: [1]
6.93: [4]
7.65: [46]
7.22: [20]
7.90: [37]
6.78: [41]
7.11: [50]
7.41: [29]
6.85: [16]
7.50: [26]
8.32: [45]
< 6.70: [2] | [3] | [5] | [6] | [7] | [8] | [9] | [10] | [11] | [12] | [13] | [14] | [15] | [17] | [18] | [21] | [22] | [23] | [24] | [25] | [27] | [28] | [30] | [32] | [33] | [34] | [35] | [36] | [38] | [39] | [40] | [42] | [43] | [44] | [47] | [48] | [49] | [51]
6.73: [31]
